Assay results published in patent US5466675A, “Immunological activity of rhamnolipids” (priority 1992, dated 1995).

Assays:
[1] = tested on: B-cells isolated from mouse spleen; assay: B-lymphocyte proliferation + LPS; format: cell-based
Experimental: Procedure: B-cells were isolated from mouse spleen using convnetional procedures, and suspended in DMEM. 10^6 cells/ml were incubated overnight at 37° C. in the presence of 10 ug/ml lipopolysaccharide (LPS) to assess stimulation (positive score, related to 1 ng/ml rat interleukin-5) or suppression (negative score, related to control) of cell proliferation. The test substance was evaluated under these conditions at 10, 1, 0.1, and 0.01 uM. After overnight incubation, 2 uCi [^3 H] thymidine was added to each well. Cells were harvested after an additional 48 hour incubation, and thymidine incorporation assessed by liquid scintillation counting.

patients = conditions: human, in vivo
Text: Blood samples for lab tests were taken from all twelve patients on the first and last day of treatment.

[2] = tested on: Dopamine D2A (human recombinant); assay: [3H] spiperone dopamine D2A receptor inhibition; format: binding; conditions: 100 uM
[3] = tested on: sheep red blood cell (SRBC) hemagglutination; assay: immunostimulation (humoral): sheep red blood cell (SRBC) hemagglutination; format: in vivo, mouse (ICR, female)
Experimental: Groups of 6 mice were sensitized by the IV injection of 0.2 ml of a 2% SRBC suspension. On the 9th day following sensitization, blood samples were withdrawn from the orbital sinus and equal parts of complement inactivated serum from the group of 6 mice were pooled to yield a single 0.25 ml sample. Serial 2-fold dilutions were then carried out 10 times in the presence of added complement. […] Serum titers of less than 16 or greater than 128 are considered significant and indicate possible immunosuppressant and immunostimulant activity, respectively.
For immunostimulant activity, test substance or vehicle was administered i.p. to groups of mice for 3 consecutive days, and sensitized to SRBCs 2 hours after the third (last) injection. For immunosuppressant activity, test substance or vehicle was administered i.p. to groups of mice for 3 consecutive days beginning 2 hours after sensitization to SRBCs.

[4] = tested on: B-cells isolated from mouse spleens; assay: B-lymphocyte proliferation; format: cell-based; conditions: B-cell, 0.5% DMSO, read-out: % Stimulation (+)/Suppression (-)
Experimental: Procedure: B-cells were isolated from mouse spleens using conventional procedures, and suspended in DMEM. 10^6 cells/ml were incubated overnight at 37° C. to assess stimulation (positive score, related to 1 ug/ml lipopolysaccharide) or suppression (negative score, related to blank control) of cell proliferation. The test substance was evaluated under these conditions at 10, 1, 0.1, 0.01 and 0.001 uM. After overnight incubation, 2 uCi [^3 H] thymidine incorporation was assessed by liquid scintillation counting.

mice C57B1/6 = assay: range-finding study phase (five doses per five days, one dose per day)
carboxypeptidase A = assay: enzyme inhibition, carboxypeptidase A; format: biochemical
Experimental: (§1) Rhamnolipid (II) was tested in vitro against a wide array of enzymes.
(§2) The following enzymes were inhibited at the various rhamnolipid concentrations indicated:
(§3) All enzyme assays were done spectrophotometrically by computer linked automatic microplate reader (Labsystem Multiskan) and Diode Array spectrophotometer (Perkin Elmer).

acetylcholinesterase = assay: enzyme inhibition, acetylcholinesterase; format: biochemical
Experimental: as §1, §2, §3

Lichen ruber planus = assay: clinical treatment of lichen ruber planus; format: in vivo, human; conditions: one patient
Experimental: 17 patients, 11 men and 6 women, were treated with rhamnolipid (II). Among these, 12 patients were suffering from Psoriasis, 2 from Neurodermitis, 1 from Lichen ruber planus, 1 from Serborhoic dermatitis and one from Dermatitis circumscripta unilocularis eczematoides.

rat platelet rich plasma = assay: collagen induced platelet aggregation; format: cell-based; conditions: 0.1 mg/ml
Experimental: Collagen induced platelet aggregation in rat platelet rich plasma was not affected by rhamnolipid (II) at 0.1 mg/ml.

[5] = target: Dopamine D1 (human recombinant) (Homo sapiens, UniProt P21728); assay: [3H] SCH23390 dopamine D1 receptor inhibition; format: binding; conditions: 0.5% DMSO
Dopamine D1 (human recombinant), sequence (P21728 whole entry): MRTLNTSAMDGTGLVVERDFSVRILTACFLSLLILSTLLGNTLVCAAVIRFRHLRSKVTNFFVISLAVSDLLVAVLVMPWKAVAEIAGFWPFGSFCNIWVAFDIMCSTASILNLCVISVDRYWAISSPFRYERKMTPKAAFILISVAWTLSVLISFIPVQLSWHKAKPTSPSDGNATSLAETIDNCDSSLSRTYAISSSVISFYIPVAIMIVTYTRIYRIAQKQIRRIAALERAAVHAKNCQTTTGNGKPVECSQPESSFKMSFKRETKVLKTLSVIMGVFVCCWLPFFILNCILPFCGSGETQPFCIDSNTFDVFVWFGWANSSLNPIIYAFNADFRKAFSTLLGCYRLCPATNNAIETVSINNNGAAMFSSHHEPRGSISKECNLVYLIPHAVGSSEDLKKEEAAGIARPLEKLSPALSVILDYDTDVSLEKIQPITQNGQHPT

alpha-chymotrypsin = assay: enzyme inhibition, alpha-chymotrypsin; format: biochemical
Experimental: as §1, §3

[6] = five doses per five days, intraperitoneal

CCCCCCCC(CC(=O)O)OC(=O)CC(CCCCCCC)O[C@@H]1O[C@@H](C)[C@H](O)[C@@H](O)[C@H]1O[C@@H]1O[C@@H](C)[C@H](O)[C@@H](O)[C@H]1O (stereo partly drawn) [Rhamnolipid (II), (alpha-L-rhamnopyranosyl-(1,2)alpha-L-rhamnopyranosyl)-3-hydroxydecanoyl-3-hydroxydecanoic acid]
B-cell proliferation ([1]; 10 uM and 1 uM, added lipopolysaccharide): significant suppression | activation at 0.001 µM ([1]; Mus musculus, B-cell, read-out: % Stimulation (+)/Suppression (-)): 13% | activation at 0.01 µM ([1]; Mus musculus, B-cell, 0.01 uM, LPS, 0.5% DMSO, read-out: % Stimulation (+)/Suppression (-)): -15% | activation at 0.1 µM ([1]; Mus musculus, B-cell, 0.1 uM, LPS, 0.5% DMSO, read-out: % Stimulation (+)/Suppression (-)): -9% | activation at 1 µM ([1]; Mus musculus, B-cell, 1 uM, LPS, 0.5% DMSO, read-out: % Stimulation (+)/Suppression (-)): -25% | activation at 10 µM ([1]; Mus musculus, B-cell, 10 uM, LPS, 0.5% DMSO, read-out: % Stimulation (+)/Suppression (-)): -54% | lab tests of blood samples (patients): no altered results of the tests were observed | inhibition of the dopamine D2A receptor [2]: 53% | SERUM TITER (Reciprocal Serum Dilution) ([3]; IP 0.1 × 3 mg/kg): 64 | SERUM TITER (Reciprocal Serum Dilution) ([3]; IP 1 × 3 mg/kg): 64 | SERUM TITER (Reciprocal Serum Dilution) ([3]; IP 10 × 3 mg/kg): 128 | SERUM TITER (Reciprocal Serum Dilution) ([3]; IP 100 × 3 mg/kg): 8 | died on Day 3 ([3]; IP 100 × 3 mg/kg): 1/6 | activation at 0.001 µM ([4]; 0.001 uM): 4% | activation at 0.01 µM ([4]; 0.01 uM): 8% | activation at 0.1 µM ([4]; 0.1 uM): 10% | activation at 1 µM ([4]; 1 uM): 9% | activation at 10 µM ([4]; 10 uM): 2% | lower bracket dose (LBD) (mice C57B1/6; [6]): 45 mg/kg | single dose toxicity (mice C57B1/6; [6]): 5 mg/kg | upper bracket dose (UBD) (mice C57B1/6; [6]): 125 mg/kg | basophiles (mice C57B1/6; fourth day after application): significant increase | eosinophiles (mice C57B1/6; fourth day after application): significant increase | lymphocytes (mice C57B1/6; fourth day after application): significant decrease | neutrophils (mice C57B1/6; fourth day after application): significant increase | behavior and appearance of treated mice (mice C57B1/6; observation period): no changes | concentration at which the enzyme was inhibited (carboxypeptidase A): 1 mg/mL | concentration at which the enzyme was inhibited (acetylcholinesterase): 1 mg/mL | cure (Lichen ruber planus): completely cured | collagen induced platelet aggregation (rat platelet rich plasma): not affected | inhibition at 0.01 µM ([5]; 0.01 μM): 8% | inhibition at 1 µM ([5]; 1 μM): 8% | inhibition at 100 µM ([5]; 100 μM): 101% | effect on enzyme (alpha-chymotrypsin): no effect
